Residue numbers refer to the chain shown, from its start.

We go through two compounds from article PMC2746095 (Biochemistry, 2009).

Assay [1] concerns the target T1, R. etli pyruvate carboxylase (RePC) (Rhizobium etli, UniProt Q2K340, T882A).
T1 sequence (Q2K340 1-1154 T882A): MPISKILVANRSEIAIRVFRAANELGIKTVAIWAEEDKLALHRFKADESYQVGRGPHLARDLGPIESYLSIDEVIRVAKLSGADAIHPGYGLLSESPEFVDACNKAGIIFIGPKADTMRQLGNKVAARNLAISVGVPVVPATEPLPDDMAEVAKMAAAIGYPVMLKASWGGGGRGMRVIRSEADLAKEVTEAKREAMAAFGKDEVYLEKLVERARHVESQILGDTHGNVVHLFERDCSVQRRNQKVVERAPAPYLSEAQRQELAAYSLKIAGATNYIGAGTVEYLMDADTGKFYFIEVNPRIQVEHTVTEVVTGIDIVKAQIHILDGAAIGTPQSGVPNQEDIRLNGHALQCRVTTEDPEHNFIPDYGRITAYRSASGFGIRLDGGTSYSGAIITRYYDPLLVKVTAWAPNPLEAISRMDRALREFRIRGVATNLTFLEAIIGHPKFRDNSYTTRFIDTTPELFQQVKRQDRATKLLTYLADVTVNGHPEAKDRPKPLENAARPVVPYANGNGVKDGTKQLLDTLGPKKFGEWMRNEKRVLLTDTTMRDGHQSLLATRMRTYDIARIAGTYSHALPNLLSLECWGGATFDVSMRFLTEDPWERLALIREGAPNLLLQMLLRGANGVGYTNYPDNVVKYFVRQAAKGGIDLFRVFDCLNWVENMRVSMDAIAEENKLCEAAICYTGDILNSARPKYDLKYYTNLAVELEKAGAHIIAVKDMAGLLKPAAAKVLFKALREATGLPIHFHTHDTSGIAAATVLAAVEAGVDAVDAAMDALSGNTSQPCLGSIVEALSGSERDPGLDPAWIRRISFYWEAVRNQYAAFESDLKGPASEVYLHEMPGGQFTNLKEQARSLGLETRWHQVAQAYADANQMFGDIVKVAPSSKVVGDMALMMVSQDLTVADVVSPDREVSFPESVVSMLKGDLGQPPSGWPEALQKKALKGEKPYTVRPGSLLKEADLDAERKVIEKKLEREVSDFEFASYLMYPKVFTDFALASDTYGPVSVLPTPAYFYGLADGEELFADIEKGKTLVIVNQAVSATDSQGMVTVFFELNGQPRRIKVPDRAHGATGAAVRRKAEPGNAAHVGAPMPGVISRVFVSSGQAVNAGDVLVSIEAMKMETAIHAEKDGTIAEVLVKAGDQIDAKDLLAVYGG
Description: bicarbonate-dependent ATPase, coupled Pi assay, partial inhibition fit. In kind it is biochemical.

For assay [2], the target named is T2, R. etli pyruvate carboxylase (RePC) (Rhizobium etli, UniProt Q2K340).
T2 sequence (Q2K340 1-1154): T1 sequence (Q2K340 1-1154 T882A) with A882T
Description: bicarbonate-dependent ATPase, coupled Pi assay, fit to substrate inhibition. The class given is biochemical. The conditions noted are these: 0-20 mM pyruvate, text prints 10.2 ± 0.1 mM, 100 mM Tricine pH 7.5, 25 °C, 10 mM HCO3-, 2.5 mM MgATP, 2.5 mM MgCl2, 0.25 mM acetyl-CoA.

As for `CC(=O)C(=O)O` [pyruvate], the Ki was 800 ± 100 µM in assay [1] and 10 ± 1 mM in assay [2].

In assay [1], `NC(=O)C(=O)O` [oxamate] registered a Ki of 1000 ± 200 µM.
